Legend:
HIV-1 integrase [1] = target: T1, HIV-1 integrase (Human immunodeficiency virus type 1 group M subtype B, UniProt P12497); test: 3′-processing assay; format: biochemical; details: 500 nM integrase, blunt ended 32P-labled 21-mer U5 DNA, 37° C. 1 hour; read-out: IC50 (μM) 3′-Process
Description: (§1) The two metal binding motif of these compounds allows for potential cross reactivity with other drug targets with two metal containing active sites. Compounds were tested for LEDGF independent integration (strand transfer) and 3′ processing based on established protocols (Kessl et al.; J Biol Chem, 2012; 287:16801-16811).
(§2) The 3′-processing was assayed using blunt ended ^32P-labled 21-mer synthetic double stranded U5 DNA. The strand transfer assay used ^32P-labled recessed end 19-mer synthetic double stranded U5 DNA. 500 nM integrase was pre-incubated with compound for 30 minutes on ice in 50 mM MOPS (pH 7.2) buffer containing 2 mM β-mercaptoethanol, 50 mM NaCl and 10 mM MgCl2. 50 nM DNA substrate was added to the reaction and incubated at 37° C. for 1 hour when the reactions were stopped with 50 mM EDTA. The reaction products are subjected to denaturing polyacrylamide gel electrophoresis and visualized using a Storm 860 Phosphorimager (Amersham Biosciencs). The ICs50s of representative compounds of formula (I) as detected with a LEDGF independent integration assay or a 3′-processing assay are shown in the following table.

HIV-1 integrase [2] = target: T1, HIV-1 integrase; test: LEDGF independent integration (strand transfer) assay; format: biochemical; details: 500 nM integrase, 32P-labled recessed end 19-mer U5 DNA, 37° C. 1 hour
Description: as §1, §2

Row | SMILES | IC50 (HIV-1 integrase [1]) | IC50 (HIV-1 integrase [2])
1 | O=C(O)c1cccc(-c2c[nH]c(=O)c(O)c2)c1 [drawing 240] | 22.2 ± 2.5 µM | 20.5 ± 1.3 µM
2 | O=c1[nH]c(-c2ccc(O)c(O)c2)ccc1O [drawing 237] | 8.2 ± 2.5 µM | 6 ± 0.8 µM
3 | O=C(O)c1ccc(-c2c[nH]c(=O)c(O)c2)cc1 [drawing 242] | 7.4 ± 1.6 µM | 50.7 ± 2.9 µM
4 | O=c1[nH]c(-c2ccc(-c3nnn[nH]3)cc2)c(-c2ccc(F)cc2)cc1O [drawing 238] | 20.8 ± 5.8 µM | 11.7 ± 1.5 µM
5 | O=c1[nH]cc(-c2ccc(F)cc2)cc1O [drawing 239] | 11.6 ± 1.6 µM | 15.7 ± 0.9 µM
6 | O=c1[nH]c(-c2ccc(-c3nnn[nH]3)cc2)ccc1O [drawing 241] | 12.6 ± 3.2 µM | 23.7 ± 2.7 µM
